System: MA-148-luc ovarian cancer cells
Test: Xenogeneic ovarian cancer MA-148-Luc model
Format: in vivo, NSG mice
Text: FIGS. 32A-32F illustrate that cam1615B7-H3 TriKE is efficacious in subduing ovarian tumor progression in vivo. FIG. 32A is a diagram showing xenogeneic ovarian cancer MA-148-Luc model in female NSG mice (N=5 per treatment group). FIG. 32B is a graph showing bioluminescent imaging indicative of tumor progression, measured as Total flux radiance (p/s), over three weeks in the MA148 mouse model treated with enriched NK cells and noted treatments. FIG. 32C is a graph illustrating bioluminescent imaging results on day 21 data point. FIG. 32D is a photograph illustrating total flux radiance (p/s) on day 21. FIG. 32E is a scatter plot of CD56+CD3− NK cell numbers from peritoneal lavages for the rhIL-15 and cam1615B7-H3 TriKE treatment groups at D21. FIG. 32F is a scatter plot of CD16 media fluorescence intensity on NK cells from peritoneal lavages for the rhIL-15 and cam1615B7-H3 TriKE treatment groups at day 21. * p<0.05, ** p<0.01.
MA-148-Luc ovarian cancer cells were incorporated into a previously described NK cell xenogeneic mouse model system. NSG mice (NOD.Cg-Prkdcscid Il2rgtm1Wjl/SzJ, n=5/group) were injected IP with 2.0×10^5 MA-148-luc cells and then three days later conditioned with low-dose total body irradiation (225 cGy). The following day, all groups received highly enriched NK cells (PBMC magnetically CD3 and CD19 depleted), equivalent to 1 million NK cells/mouse, and were started on the drug regimen. A single course of treatment consisted of an IP injection of […] of TriKE or 5 μg rhIL-15 given every day of the week (Monday-Friday) for three weeks. MA-148-luc cells are a subline of MA-148 that have been transfected with a luciferase reporter gene, allowing for imaging of the mice each week to determine their bioluminescent activity and to monitor tumor progression. Briefly, mice were injected with 100 μL of 30 mg/mL luciferin substrate 10 min prior to imaging and then anesthetized via inhalation of isoflurane gas (25). Mice were then imaged using the Xenogen Ivis 100 imaging system and analyzed with Living Image 2.5 software (Xenogen Corporation, Alameda, CA, USA). At the end of the experiment (day 21), all the animals were sacrificed, and postmortem peritoneal lavages were performed to analyze human NK cell content by flow cytometry. Animal imaging and analysis was performed at the University of Minnesota Imaging Center. Mouse studies were carried after approval (protocol 1908-37330A) from the Institutional Animal Care and Use Committee (IACUC) at the University of Minnesota and in compliance with their guidelines.
As illustrated in FIGS. 32A-32F, cam1615B7-H3 TriKE mediates anti-tumor activity in vivo. Determination of in vivo activity is a critical step for translation. However, prior to evaluating the ability of the cam1615B7-H3 TriKE to induce function against tumor the potential for toxicity was assessed. To do this NSG mice were irradiated, engrafted with 1 million NK cells, treated with nothing, IL-15, or cam1615B7-H3 for three weeks, and weights were tracked over the course of 90 days post initial treatment. […] This is not surprising given the low toxicity profile of IL-15 and the safety profile of B7-H3. […] In this model, human NK cells and human high grade serous MA-148-luc cells are injected into the peritoneal cavity of NSG mice.

cam1615B7-H3: second-generation TriKE: humanized camelid anti-CD16 VHH, human wild-type IL-15, anti-B7-H3 mAb 376.96 scFv; SEQ ID NO:1
tumor progression (bioluminescence), longitudinal (IP 30 g of TriKE or 5 μg rhIL-15 Monday-Friday for three weeks, enriched NK cells, vs IL-15 treated or tumor only): lowest tumor progression
PD-1 expression (TriKE-treated vs IL-15-treated mice): lower (but not significant) trend of expression
CD16 expression on NK cells from peritoneal lavages (day 21, vs IL-15 treated mice): higher levels of CD16 expression than IL-15 treated mice
tumor burden at day 21 (day 21, vs tumor only group): significantly lower tumor burden than the tumor only group
disease outcome of treated animals (treatment not curative within this model): stable disease
